Measured values from ChEMBL document CHEMBL1201862, “PubChem BioAssay data set” (2004).
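Exposure lasted 48 hours, with cells grown in 96-well plates and compounds tested at five concentrations. Here, GI50 denotes the concentration required for 50% inhibition of growth.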 Calls of active or inactive are those of the source. Cut-off read from the data, not from the text of the source: active = GI50 up to about 1.1 µM and inactive = higher.

Legend:
Test in all cases: DTP human tumour cell line panel, 48 h
[1] = test system: PC-3
[2] = test system: HCT-15
[3] = test system: NCI-H23
[4] = test system: 786-0
[5] = test system: BT-549
[6] = test system: CAKI-1
[7] = test system: MDA-MB-231
[8] = test system: DU-145
[9] = test system: MDA-MB-435
[10] = test system: A498
[11] = test system: UACC-257
[12] = test system: NCI-H460
[13] = test system: OVCAR-3
[14] = test system: SF-268
[15] = test system: MDA-N
[16] = test system: RPMI-8226
[17] = test system: SF-539
[18] = test system: NCI-H522
[19] = test system: SK-OV-3
[20] = test system: SNB-75
[21] = test system: LOX IMVI
[22] = test system: A549
[23] = test system: T47D
[24] = test system: SK-MEL-28
[25] = test system: M14
[26] = test system: COLO 205
[27] = test system: SN12C
[28] = test system: EKVX
[29] = test system: Malme-3M
[30] = test system: OVCAR-4
[31] = test system: UACC-62
[32] = test system: OVCAR-8
[33] = test system: KM12
[34] = test system: CCRF-CEM
[35] = test system: IGROV-1
[36] = test system: ACHN
[37] = test system: HT-29
[38] = test system: HCT-116
[39] = test system: MCF7
[40] = test system: NCI/ADR-RES
[41] = test system: TK-10
[42] = test system: SW-620
[43] = test system: NCI-H226
[44] = test system: OVCAR-5
[45] = test system: RXF 393
[46] = test system: U-251
[47] = test system: Hs-578T
[48] = test system: HOP-62
[49] = test system: UO-31
[50] = test system: SF-295
[51] = test system: HCC 2998
[52] = test system: SK-MEL-5
[53] = test system: SR
[54] = test system: HOP-92
[55] = test system: MOLT-4
[56] = test system: SK-MEL-2
[57] = test system: SNB-19
[58] = test system: K562

SMILES: COc1ccc(C2CC3(c4ccccc4)ON=C(c4ccccc4)N3c3ccccc3S2)cc1 (configuration not stated)
- GI50 [1]: > 100 µM (inactive)
- GI50 [2]: > 100 µM
- GI50 [3]: > 100 µM (inactive)
- GI50 [4]: > 100 µM (inactive)
- GI50 [5]: > 100 µM (inactive)
- GI50 [6]: > 100 µM (inactive)
- GI50 [7]: > 100 µM (inactive)
- GI50 [8]: > 100 µM (inactive)
- GI50 [9]: > 100 µM (inactive)
- GI50 [10]: > 100 µM (inactive)
- GI50 [11]: > 100 µM (inactive)
- GI50 [12]: > 100 µM (inactive)
- GI50 [13]: > 100 µM (inactive)
- GI50 [14]: > 100 µM (inactive)
- GI50 [15]: > 100 µM (inactive)
- GI50 [16]: > 100 µM (inactive)
- GI50 [17]: > 100 µM (inactive)
- GI50 [18]: > 100 µM (inactive)
- GI50 [19]: > 100 µM (inactive)
- GI50 [20]: > 100 µM (inactive)
- GI50 [21]: > 100 µM (inactive)
- GI50 [22]: > 100 µM (inactive)
- GI50 [23]: > 100 µM (inactive)
- GI50 [24]: > 100 µM (inactive)
- GI50 [25]: > 100 µM (inactive)
- GI50 [26]: > 100 µM (inactive)
- GI50 [27]: > 100 µM (inactive)
- GI50 [28]: > 100 µM (inactive)
- GI50 [29]: > 100 µM (inactive)
- GI50 [30]: > 100 µM (inactive)
- GI50 [31]: > 100 µM (inactive)
- GI50 [32]: > 100 µM (inactive)
- GI50 [33]: > 100 µM (inactive)
- GI50 [34]: > 100 µM (inactive)
- GI50 [35]: > 100 µM (inactive)
- GI50 [36]: > 100 µM (inactive)
- GI50 [37]: > 100 µM (inactive)
- GI50 [38]: > 100 µM (inactive)
- GI50 [39]: > 100 µM (inactive)
- GI50 [40]: > 100 µM (inactive)
- GI50 [41]: > 100 µM (inactive)
- GI50 [42]: > 100 µM (inactive)
- GI50 [43]: > 100 µM (inactive)
- GI50 [44]: > 100 µM (inactive)
- GI50 [45]: > 100 µM (inactive)
- GI50 [46]: > 100 µM (inactive)
- GI50 [47]: > 100 µM (inactive)
- GI50 [48]: > 100 µM (inactive)
- GI50 [49]: 51.2 µM (inactive)
- GI50 [50]: > 100 µM (inactive)
- GI50 [51]: > 100 µM (inactive)
- GI50 [52]: > 100 µM (inactive)

SMILES: CCc1n[nH]c(=O)n1CCCCCCCCn1c(CC)n[nH]c1=O
- GI50 [1]: > 100 µM (inactive)
- GI50 [2]: > 100 µM
- GI50 [3]: > 100 µM (inactive)
- GI50 [4]: > 100 µM (inactive)
- GI50 [5]: > 100 µM (inactive)
- GI50 [6]: > 100 µM (inactive)
- GI50 [7]: > 100 µM (inactive)
- GI50 [53]: > 100 µM (inactive)
- GI50 [9]: > 100 µM (inactive)
- GI50 [11]: > 100 µM (inactive)
- GI50 [12]: > 100 µM (inactive)
- GI50 [13]: > 100 µM (inactive)
- GI50 [14]: > 100 µM (inactive)
- GI50 [15]: > 100 µM (inactive)
- GI50 [16]: > 100 µM (inactive)
- GI50 [17]: > 100 µM (inactive)
- GI50 [54]: > 100 µM (inactive)
- GI50 [18]: > 100 µM (inactive)
- GI50 [19]: > 100 µM (inactive)
- GI50 [20]: > 100 µM (inactive)
- GI50 [21]: > 100 µM (inactive)
- GI50 [22]: > 100 µM (inactive)
- GI50 [23]: > 100 µM (inactive)
- GI50 [55]: > 100 µM (inactive)
- GI50 [25]: > 100 µM (inactive)
- GI50 [26]: > 100 µM (inactive)
- GI50 [27]: > 100 µM (inactive)
- GI50 [28]: > 100 µM (inactive)
- GI50 [29]: > 100 µM (inactive)
- GI50 [30]: > 100 µM (inactive)
- GI50 [31]: > 100 µM (inactive)
- GI50 [32]: > 100 µM (inactive)
- GI50 [33]: > 100 µM (inactive)
- GI50 [34]: > 100 µM (inactive)
- GI50 [35]: > 100 µM (inactive)
- GI50 [36]: > 100 µM (inactive)
- GI50 [56]: > 100 µM (inactive)
- GI50 [37]: > 100 µM (inactive)
- GI50 [38]: > 100 µM (inactive)
- GI50 [39]: > 100 µM (inactive)
- GI50 [40]: > 100 µM (inactive)
- GI50 [41]: > 100 µM (inactive)
- GI50 [42]: > 100 µM (inactive)
- GI50 [43]: > 100 µM (inactive)
- GI50 [44]: > 100 µM (inactive)
- GI50 [45]: > 100 µM (inactive)
- GI50 [57]: > 100 µM (inactive)
- GI50 [46]: > 100 µM (inactive)
- GI50 [47]: > 100 µM (inactive)
- GI50 [58]: > 100 µM (inactive)
- GI50 [48]: > 100 µM (inactive)
- GI50 [49]: > 100 µM (inactive)
- GI50 [50]: > 100 µM (inactive)
- GI50 [51]: > 100 µM (inactive)
- GI50 [52]: > 100 µM (inactive)
